Common to all, as to format: physicochemical
Data set [1] can be described thus: Measurement of Log P values by HPLC on reversed phase columns (EEC directive 79/831 Annex V.A8). The conditions noted are these: reversed phase HPLC column, acidic range, 0.1% formic acid in water and acetonitrile. How it is done: Measurement of Log P values Measurement of Log P values as provided herein was performed according to EEC directive 79/831 Annex V.A8 by HPLC (High Performance Liquid Chromatography) on reversed phase columns with method determined by measurement of LC-UV, in an acidic range, with 0.1% formic acid in water and acetonitrile as eluent (linear gradient from 10% acetonitrile to 95% acetonitrile). Calibration was done with straight-chain alkan2-ones (with 3 to 16 carbon atoms) with known Log P values (measurement of Log P values using retention times with linear interpolation between successive alkanones). Lambda-max-values were determined using UV-spectra from 200 nm to 400 nm and the peak values of the chromatographic signals

Data set [2] can be described thus: Transition temperature between polymorphic forms A and B (temperature-depending XRPD). Particulars: for phase change temperature: temperature-depending XRPD. How it is done:
To obtain crystals of polymorphic form A, a temperature-depending X-ray powder diffraction (XRPD) experiment was performed, in which recrystallization was allowed at different temperatures.

Data set [3] can be described thus: Slurry experiment (polymorph obtained, XRPD). Particulars: for Mod. obtained: 8 days. How it is done: Compound of formula (I) was suspended in the respective solvent and stirred at 0° C., 40° C. (Mya4 stirrer station at 250 u/min) and 80° C. After three to eight days, an additional amount of solvent was added to the suspensions. In two experiments additional substance were added after four days. After eight days the suspensions were dried at ambient conditions.
The obtained crystals were isolated and analyzed by X-ray powder diffraction (XRPD) spectrometry, DSC and TGA.

In data set [1], `Cc1ccc(C[C@H]2CON=C(c3cc(C)nnc3Oc3cccc(Cl)c3F)N2)c(Cl)c1` [compound of formula (I), (5S)-3-[3-(3-chloro-2-fluorophenoxy)-6-methylpyridazin-4-yl]-5-(2-chloro-4-methylbenzyl)-5,6-dihydro-4H-1,2,4-oxadiazine] came in with a chromatographic logP of 3.88.
Turning to `Cc1ccc(C[C@H]2CON=C(c3cc(C)nnc3Oc3cccc(Cl)c3F)N2)c(Cl)c1` [polymorphic form B, (5S)-3-[3-(3-chloro-2-fluorophenoxy)-6-methylpyridazin-4-yl]-5-(2-chloro-4-methylbenzyl)-5,6-dihydro-4H-1,2,4-oxadiazine], the thermodynamic stability result in data set [2] (below the transition temperatures (49° C. to 66° C.)) is reported as “thermodynamically stable polymorph”. Also, the Mod. obtained entry is listed as “Mod. B” in data set [3] (Exp. No. 1: Mod. B used, CH3CN, 0 °C); “Mod. B” in data set [3] (Exp. No. 2: Mod. B used, CH3CN, 40 °C); “Mod. B” in data set [3] (Exp. No. 3: Mod. B used, CH3CN/water, 80 °C); “Mod. B” in data set [3] (Exp. No. 4: Mod. B used, Ethanol/water (1:1), 0 °C); “Mod. B” in data set [3] (Exp. No. 5: Mod. B used, Ethanol/water (1:1), 40 °C); “Mod. B” in data set [3] (Exp. No. 6: Mod. B used, Ethanol/water (1:1), 80 °C). The “stability in slurry experiments: recrystallization events” value in data set [3] (above the transition temperature range over an extended period of time) was “No recrystallization events were observed”.
As for `Cc1ccc(C[C@H]2CON=C(c3cc(C)nnc3Oc3cccc(Cl)c3F)N2)c(Cl)c1` [polymorphic form A, (5S)-3-[3-(3-chloro-2-fluorophenoxy)-6-methylpyridazin-4-yl]-5-(2-chloro-4-methylbenzyl)-5,6-dihydro-4H-1,2,4-oxadiazine], the thermodynamic stability entry in data set [2] (at lower temperatures) is recorded as “very fast transition to polymorphic form B”. For the same compound, the phase change temperature in data set [2] (on cooling) stood at 40 °C; in data set [2] (on heating), 60 °C.

Usually chromatographic logP stands for lipophilicity estimated from chromatographic retention. A high value points to higher lipophilicity.

The record behind these values is US20250304566A1, “CRYSTALLINE FORMS OF (5S)-3-[3-(3-CHLORO-2-FLUOROPHENOXY)-6-METHYLPYRIDAZIN-4-YL]-5-(2-CHLORO-4-METHYLBENZYL)-5,6-DIHYDRO-4H-1,2,4-OXADIAZINE” (priority 2022, published 2025).
